In ChEMBL document CHEMBL2439975, “Aminopropyl carbazole analogues as potent enhancers of neurogenesis” (Bioorg Med Chem, 2013):
The source made the active and inactive calls. The calls are words filed in the database; no cut-off is given here.

How the values were obtained:
NSC [1] = assay: Induction of differentiation of Sprague-Dawley rat embryo cortex NSC assessed as TUJ1-positive neurons at 5 uM after 4 days by immunostaining method relative to DMSO-treated control; assay type: functional
NSC [2] = assay: Neuroprotective activity against Sprague-Dawley rat embryo cortex NSC assessed as reduction of bcl2 mRNA at 10 uM after 2 days by RT-PCR method relative to DMSO-treated control; assay type: functional, cell-based
NSC [3] = assay: Neuroprotective activity against Sprague-Dawley rat embryo cortex NSC assessed as reduction of bax mRNA at 10 uM after 2 days by RT-PCR method relative to DMSO-treated control; assay type: functional, cell-based
NSC [4] = assay: Cytotoxicity against Sprague-Dawley rat embryo cortex NSC assessed as cell viability at 1 to 50 uM after 2 days by MTT assay relative to DMSO-treated control; assay type: cell-based; conditions: 48 h
NSC [5] = assay: Neuroprotective activity against Sprague-Dawley rat embryo cortex NSC assessed as […] of bcl2 to bax at 10 uM after 2 days by RT-PCR method relative to DMSO-treated control; assay type: functional, cell-based
NSC [6] = assay: Cytotoxicity against Sprague-Dawley rat embryo cortex NSC assessed as shrinkage and rounding up of cells at 20 to 50 uM after 2 days by microscopy relative to DMSO-treated control in presence of EGF and FGF2; assay type: cell-based; conditions: 48 h
NSC [7] = assay: Induction of neurogenesis of Sprague-Dawley rat embryo cortex NSC assessed as increase in neuroD mRNA expression after 4 days by RT-PCR method relative to DMSO-treated control; assay type: functional, cell-based
NSC [8] = assay: Induction of neurogenesis of Sprague-Dawley rat embryo cortex NSC assessed as increase in beta3 tubulin mRNA expression at 5 uM after 4 days by RT-PCR method relative to DMSO-treated control; assay type: functional
NSC [9] = assay: Antiproliferative activity against Sprague-Dawley rat embryo cortex NSC assessed as reduction in neurosphere volume at 5 to 10 uM after 5 days by neurosphere growth assay relative to DMSO-treated control in presence of EGF and FGF2; assay type: functional, cell-based
NSC [10] = assay: Neuroprotective activity against Sprague-Dawley rat embryo cortex NSC assessed as reduction of bcl2 mRNA at 5 to 10 uM after 2 days by RT-PCR method relative to DMSO-treated control; assay type: functional, cell-based
NSC [11] = assay: Inhibition of astrocytogenesis of Sprague-Dawley rat embryo cortex NSC assessed as downregulation of notch1 mRNA expression after 4 days by RT-PCR method relative to DMSO-treated control; assay type: functional, cell-based
NSC [12] = assay: Neuroprotective activity against Sprague-Dawley rat embryo cortex NSC assessed as […] of bcl2 to bax at 5 to 10 uM after 2 days by RT-PCR method relative to DMSO-treated control; assay type: functional, cell-based
NSC [13] = assay: Inhibition of astrocytogenesis of Sprague-Dawley rat embryo cortex NSC assessed as downregulation of hes1 mRNA expression after 4 days by RT-PCR method relative to DMSO-treated control; assay type: functional, cell-based
NSC [14] = assay: Induction of neurogenesis of Sprague-Dawley rat embryo cortex NSC assessed as increase in beta3 tubulin mRNA expression after 4 days by RT-PCR method relative to DMSO-treated control; assay type: functional, cell-based
NSC [15] = assay: Inhibition of astrocytogenesis of Sprague-Dawley rat embryo cortex NSC assessed as repression of gfap mRNA expression after 4 days by RT-PCR method relative to DMSO-treated control; assay type: functional, cell-based
NSC [16] = assay: Neuroprotective activity against Sprague-Dawley rat embryo cortex NSC assessed as reduction of bax mRNA at 5 to 10 uM after 2 days by RT-PCR method relative to DMSO-treated control; assay type: functional, cell-based
NSC [17] = assay: Induction of neurogenesis of Sprague-Dawley rat embryo cortex NSC assessed as effect on morphology at 10 uM after 4 days by DAPI-based phase-contrast microscopy relative to DMSO-treated control; assay type: functional, cell-based
NSC [18] = assay: Cytotoxicity against Sprague-Dawley rat embryo cortex NSC assessed as effect on morphology at 10 uM after 4 days by DAPI-based phase-contrast microscopy relative to DMSO-treated control; assay type: cell-based; conditions: 96 h

Row | SMILES | fold change (FC) (NSC [1]) | also measured
1 | COc1cccc(OCC(O)Cn2c3ccc(Br)cc3c3cc(Br)ccc32)c1 (stereo not drawn) | 1.12 | 
2 | COc1cccc(NCC(Cn2c3ccc(Br)cc3c3cc(Br)ccc32)OC(C)=O)c1 (stereo not drawn) | 0.63 | 
3 | COc1cccc(OCC(F)Cn2c3ccc(Br)cc3c3cc(Br)ccc32)c1 (stereo not drawn) | 0.87 | 
4 | COc1cccc(NCC(Cn2c3ccc(Br)cc3c3cc(Br)ccc32)OC(=O)OC(C)(C)C)c1 (stereo not drawn) | 1.25 | 
5 | OC(CNc1ccc2c(c1)OCO2)Cn1c2ccc(Br)cc2c2cc(Br)ccc21 (stereo not drawn) | 0.88 | 
6 | COc1cccc(NCC(F)Cn2c3ccccc3c3ccccc32)c1 (stereo not drawn) | 1.07 | 
7 | COc1ccc(NCC(O)Cn2c3ccc(Br)cc3c3cc(Br)ccc32)cc1 (stereo not drawn) | 1.17 | 
8 | COc1cccc(NCC(F)Cn2c3ccc(Br)cc3c3cc(Br)ccc32)c1 (stereo not drawn) | 1.16 | Activity (NSC [2]): Active; Activity (NSC [3]): inactive; Activity (NSC [4]): Non-toxic; Activity (NSC [5]): Active; Activity (NSC [6]): Toxic
9 | COc1cccc(N(CC(Cn2c3ccc(Br)cc3c3cc(Br)ccc32)OC)S(=O)(=O)c2ccc([N+](=O)[O-])cc2)c1 (stereo not drawn) | 0.92 | 
10 | COc1cccc(N(CC(Cn2c3ccc(Br)cc3c3cc(Br)ccc32)OC(C)=O)S(=O)(=O)c2ccc(C)cc2)c1 (stereo not drawn) | 0.65 | 
11 | COc1cccc(N(CC(O)Cn2c3ccc(Br)cc3c3cc(Br)ccc32)S(=O)(=O)c2ccc(C)cc2)c1 (stereo not drawn) | 1.52 | Activity (NSC [7]): Dose-dependent effect; Activity (NSC [4]): Non-toxic; fold change (FC) (NSC [8]): 1.43; Activity (NSC [9]): Active; Activity (NSC [10]): Active; inhibition (NSC [11]): Dose-dependent effect; Activity (NSC [12]): Active; inhibition (NSC [13]): Dose-dependent effect; Activity (NSC [14]): Dose-dependent effect; inhibition (NSC [15]): Dose-dependent effect; Activity (NSC [16]): Active; Activity (NSC [6]): Non-toxic; Activity (NSC [17]): Active
12 | COc1cccc(NC/C(Cn2c3ccc(Br)cc3c3cc(Br)ccc32)=N\O)c1 | 1.13 | 
13 | COc1cccc(N(Cc2ccccc2)CC(F)Cn2c3ccc(Br)cc3c3cc(Br)ccc32)c1 (stereo not drawn) | 0.58 | 
14 | COc1cccc(N(CC(=O)Cn2c3ccc(Br)cc3c3cc(Br)ccc32)S(=O)(=O)c2ccc(C)cc2)c1 | 0.52 | 
15 | COc1cccc(N(Cc2ccccc2)CC(O)Cn2c3ccc(Br)cc3c3cc(Br)ccc32)c1 (stereo not drawn) | 0.57 | 
16 | COc1cccc(NCC(F)Cn2c3ccccc3c3cc(Br)ccc32)c1 (stereo not drawn) | 0.86 | 
17 | COc1cccc(N(CC(O)Cn2c3ccc(Br)cc3c3cc(Br)ccc32)C(C)=O)c1 (stereo not drawn) | 1.25 | 
18 | Cc1ccc(NCC(O)Cn2c3ccc(Br)cc3c3cc(Br)ccc32)cc1 (stereo not drawn) | 1.88 | Activity (NSC [18]): Toxic
19 | COc1cccc(NCC(Cn2c3ccccc3c3ccccc32)OC(C)=O)c1 (stereo not drawn) | 0.39 | 
20 | COc1cccc(NCC(Cn2c3ccc(Br)cc3c3cc(Br)ccc32)OC)c1 (stereo not drawn) | 0.96 | 
21 | COc1cccc(NCC(=O)Cn2c3ccc(Br)cc3c3cc(Br)ccc32)c1 | 1.02 | 
22 | COc1cccc(NCC(O)Cn2c3ccc(Br)cc3c3cc(Br)ccc32)c1 (stereo not drawn) | 1.16 | 
23 | OC(CNc1ccc(Cl)cc1)Cn1c2ccc(Br)cc2c2cc(Br)ccc21 (stereo not drawn) | 1.29 | 
24 | COc1cccc(N(C)CC(O)Cn2c3ccc(Br)cc3c3cc(Br)ccc32)c1 (stereo not drawn) | 1.42 | 
25 | COc1cccc(N(CC(Cn2c3ccc(Br)cc3c3cc(Br)ccc32)OC)S(=O)(=O)c2ccc(C)cc2)c1 (stereo not drawn) | 0.73 | 
26 | OC(CNc1ccccc1)Cn1c2ccc(Br)cc2c2cc(Br)ccc21 (stereo not drawn) | 1.47 | 
27 | COc1ccc(NCC(O)Cn2c3ccc(Br)cc3c3cc(Br)ccc32)cc1OC (stereo not drawn) | 1.67 | fold change (FC) (NSC [8]): 1.47; Activity (NSC [18]): Toxic
